# Earlier results, collected in patent publication US7598403B2, “Synthesis of chromanones” (priority 2003, dated 2009).
# System: day-old broiler chicks
# Conditions: administered to day-old broiler chicks (Lee et al., 1985)
structure (smiles),measurement,value
"CC1(C)CC(=O)c2c(ccc(C(=O)CC(N)CO)c2N)O1 (racemic) [FC101, 5-amino-2,2-dimethyl-6-[3′-(R,S)amino-4′-hydroxy-butan-1-one]-2,3-dihydro-4H-1-benzopyran-4-one]",induction of Avian Tibial Dyschondroplasia (ATD),cause ATD
